Reference: US9199862B2, “Method for adsorbing fluorocarboxylic acid having ether bond and method for collecting same” (DAIKIN INDUSTRIES, LTD., priority 2009, dated 2015)

How the values were obtained:
[1] = normal temperature; cited from earlier work
[2] = adsorption and desorption by heating the active carbon in a dryer at 99° C. (Example 3); assay type: physicochemical; settings: Tables 3 and 4, 99° C. for 48 hours
Method: An active carbon (Specific surface area: 500-2,000 m^2/g) (0.1 g), to which 2,3,3,3-tetrafluoro-2-[1,1,2,3,3,3-hexafluoro-2-(trifluoromethoxy)propoxy]-propanoic acid was adsorbed until reaching the breakthrough point, was charged into a dryer and left at a temperature of 99° C. for 48 hours. The desorption amount was taken as the same as an adsorption amount in adsorption again after the desorption.

[3] = solubility in water; assay type: physicochemical; settings: normal temperature
Description: A fluorocarboxylic acid having an ether bond, for example, 2,3,3,3-tetrafluoro-2-[1,1,2,3,3,3-hexafluoro-2-(trifluoromethoxy)propoxy]-propanoic acid has a solubility in water of about 10% at normal temperature, which is about 50 times of the solubility of perfluorooctanoic acid (PFOA) in water. Therefore, the adsorption rate of general active carbon, for example, general-purpose active carbon for waste water which was conventionally used is 5% or less at normal temperature and pH 7.

O=C(O)C(F)(OC(F)(F)C(F)(OC(F)(F)F)C(F)(F)F)C(F)(F)F (stereo not drawn) [2,3,3,3-tetrafluoro-2-[1,1,2,3,3,3-hexafluoro-2-(trifluoromethoxy)propoxy]-propanoic acid]
solubility in water [1]: about 10%
desorption compared with perfluorohexanoic acid [2]: higher desorption
solubility in water relative to perfluorooctanoic acid (PFOA) [3]: about 50 times
